From ChEMBL document CHEMBL3352625, “Development of novel neurokinin 3 receptor (NK3R) selective agonists with resistance to proteolytic degradation” (J Med Chem, 2014)

Legend:
[1] = Agonist activity at cattle NK3R; parameters: species or system Bos taurus
[2] = Agonist activity at goat NK3R; parameters: species or system Capra hircus
[3] = Induction of GnRH release in ovariectomized goat assessed as induction of multiple-unit activity volley measured as duration of effect at 200 nmol, iv as single dose; format: functional, Capra hircus
Serum [4] = experiment: Metabolic stability in rat serum up to 24 hrs by HPLC analysis; format: ADME, cell-free
Serum [5] = experiment: Metabolic stability in cattle serum up to 24 hrs by HPLC analysis; format: ADME, Bos taurus
[6] = Metabolic stability in pig serum up to 24 hrs by HPLC analysis; format: ADME, Sus scrofa
[7] = Metabolic stability in goat serum up to 24 hrs by HPLC analysis; format: ADME, Capra hircus
[8] = Metabolic stability in pig hypothalamic extract by HPLC analysis; format: ADME, Sus scrofa, Hypothalamus
NEP 24.11 (neprilysin) = NEP 24.11 (neprilysin) (Homo sapiens, UniProt P08473); experiment: Drug metabolism assessed as NEP 24.11 (unknown origin)-mediated degradation up to 24 hrs by HPLC analysis; format: ADME; conditions: NEP 24.11 (neprilysin) enzyme, read-out: Drug metabolism
Neprilysin [9] = biological target: T1, Neprilysin (Homo sapiens, UniProt P08473); experiment: Drug metabolism assessed as NEP 24.11 (unknown origin)-mediated Succinyl-Asp-Phe-MePhe-Gly-OH up to 24 hrs by HPLC analysis; format: ADME
Neprilysin [10] = biological target: T1, Neprilysin; experiment: Drug metabolism assessed as NEP 24.11 (unknown origin)-mediated H-Leu-Met-NH2 up to 24 hrs by HPLC analysis; format: ADME

T1 sequence (P08473 whole entry): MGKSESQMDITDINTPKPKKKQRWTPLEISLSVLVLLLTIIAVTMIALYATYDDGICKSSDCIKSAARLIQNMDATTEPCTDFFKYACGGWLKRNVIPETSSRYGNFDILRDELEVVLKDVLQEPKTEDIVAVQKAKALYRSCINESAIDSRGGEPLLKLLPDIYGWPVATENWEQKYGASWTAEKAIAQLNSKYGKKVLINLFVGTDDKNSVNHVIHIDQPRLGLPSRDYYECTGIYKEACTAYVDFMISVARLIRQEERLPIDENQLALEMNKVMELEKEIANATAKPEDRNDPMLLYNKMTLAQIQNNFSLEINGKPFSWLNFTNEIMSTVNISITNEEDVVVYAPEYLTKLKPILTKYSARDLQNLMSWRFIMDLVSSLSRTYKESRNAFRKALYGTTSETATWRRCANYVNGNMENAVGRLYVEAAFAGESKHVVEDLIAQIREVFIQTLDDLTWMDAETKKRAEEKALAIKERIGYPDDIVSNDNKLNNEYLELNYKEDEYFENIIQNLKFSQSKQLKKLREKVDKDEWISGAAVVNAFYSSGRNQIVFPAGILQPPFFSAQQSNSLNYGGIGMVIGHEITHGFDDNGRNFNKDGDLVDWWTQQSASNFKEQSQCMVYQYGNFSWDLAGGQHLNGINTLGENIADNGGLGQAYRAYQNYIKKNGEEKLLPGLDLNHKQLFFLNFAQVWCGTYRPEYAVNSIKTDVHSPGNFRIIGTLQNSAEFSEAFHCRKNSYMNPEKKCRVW
Chain of NEP 24.11 (neprilysin) (P08473 whole entry): as above

- EC50 [1]: 340 nM
- EC50 [2]: 12 nM
- Stability (Serum [4]): Stable
- Stability (Serum [5]): Stable
- Stability [6]: Stable
- Stability [7]: Stable
- Stability [8]: Stable
- metabolised at 24 h (NEP 24.11 (neprilysin)): > 80%
- Drug metabolism (Neprilysin [9]): metabolite_detected
- Drug metabolism (Neprilysin [10]): metabolite_detected
Compound: CSCC[C@H](NC(=O)[C@H](CC(C)C)NC(=O)CNC(=O)[C@H](Cc1ccccc1)N(C)C(=O)[C@H](Cc1ccccc1)NC(=O)[C@H](CC(=O)O)NC(=O)CCC(=O)O)C(N)=O [SENKTIDE]
- Time [3]: 60.6 min
